Test results as given in paper doi:10.64898/2025.12.01.691523v1 (biorxiv, 2025).

Experiments:
[1] = molecular target: bacterioferritin (Bftn); conditions: buffer not given in main text
[2] = molecular target: AcFtnHCH (Anopheles culicifacies, UniProt A0A182M0V3); experiment: biochemical
Chain of AcFtnHCH (A0A182M0V3 21-216): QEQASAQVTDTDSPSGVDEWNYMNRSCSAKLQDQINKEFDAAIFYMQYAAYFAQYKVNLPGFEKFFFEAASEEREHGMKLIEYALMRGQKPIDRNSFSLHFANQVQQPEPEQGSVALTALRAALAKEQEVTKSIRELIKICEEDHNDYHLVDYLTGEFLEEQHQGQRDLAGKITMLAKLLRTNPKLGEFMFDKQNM

Q: For C=CC1=C(C)C2=Cc3c(C=C)c(C)c4[n]3[Fe]([Cl])[n]3c(c(C)c(CCC(=O)O)c3=CC3=NC(=C4)C(C)=C3CCC(=O)O)=CC1=N2 [hemin], which Kd [1] is on record?
A: 0.137 ± 0.0219 µM

Q: What about the Kd [2] of the same compound?
A: 0.0678 ± 0.0065 µM
